PMC9029893 (International Journal of Molecular Sciences, 2022)

Experiments:
[1] = tested on: AoSMC cells; experiment: WST-1 cell viability assay, AoSMC; details: Homo sapiens, 24 h, read-out: Viability-IC50, AoSMC cells
Description: (§1) HUVEC and AoSMC viability were tested using the WST-1 cell viability assay (Takara Bio Europe, Saint-Germain-en-Laye, France). […] Briefly, HUVEC and AoSMC were seeded at densities of 7500 and 5000 cells per well on 96-well plates. The cells were cultivated for up to 24 h to achieve 70% confluency, and subsequently treated with tested compounds diluted in medium (1 + 9; v = 100 μL) or pure medium (control). The plates were incubated at 37 °C (5% CO2) for the next 24 h. Then, the cells were rinsed with 100 μL culture medium, and WST-1 reagent diluted in medium (100 μL) was added; the plates were then incubated again (37 °C, 5% CO2) for another 90 min. The absorbance was measured at 450 nm (iMARK, Bio-Rad, Hercules, CA, USA). The experiments were performed in multiplicate (n = 8) and the results were presented as mean ± SD. The cell viability was expressed as a percentage of the control samples, which constituted 100% viability. […] The variability coefficient of the method was estimated (CV(HUVEC) = 8.94%, n = 8; CV(AoSMC) = 5.84%, n = 10).

[2] = tested on: HUVEC cells; experiment: HUVEC integrity in RTCA-DP system (normalized cell index); assay type: cell-based, human
Description: The effects of sulfonamides 1–8 on the integrity and barrier properties of HUVEC were examined in real-time using a cell electric impedance monitoring system (Real-Time Cell Analyzer; Roche & ACEA Biosciences, Santa Clara, CA, USA), which is based on tracking electrical impedance signals. Any changes in cell status, adhesion, and morphology are expressed by parameter Cell Index (CI). The experimental protocol has been described previously. Briefly, the cells were seeded at a density of 15,000 cells per well on E-16 plates (Roche & ACEA Biosciences, Santa Clara, CA, USA), and cultured until the cells achieved plateau phase. Then, the medium was discarded from each well, and the solutions of the test compounds dissolved in cell culturing medium (100 μL) or pure medium (100 μL, control) were added. The measurements were then carried out for 48 h. The results are presented as mean ± SD of ‘normalized cell index’ (nCI), which is calculated by the division of a CI value at a certain time point by the CI value at a reference time point. The experiments were conducted in multiplicate (n = 4–6). The method was validated and the coefficient of variability (CV) was calculated as 9.17%–15.2%, depending on the measured time point (n = 6).

[3] = tested on: HUVEC cells; experiment: Glucose utilization assay (2-NBDG uptake); assay type: cell-based, human; details: 24 h, then insulin and 2-NBDG
Description: HUVEC were seeded at a density of 20,000 cells per well in 48-well plates, and were cultured in standard conditions for 24 h (medium EGM-2; volume 0.2 mL). Following this, compounds 1–8 were added at concentrations of 0.1 and 0.3 mM, and the HUVECs were incubated for another 24 h. Cells treated with ᴅ-glucose (final concentration in a sample 0.1 mM) were used as positive controls. On the following day, the cells were rinsed with PBS (Biomed Lublin, Lublin, Poland) and cultured for two hours in glucose-free DMEM medium supplemented with 1% BSA (bovine serum albumin, Sigma, St. Louis, MO, USA). Then, the cells were co-treated with insulin (final concentration 0.0001 mM) for 30 min. Afterwards, the medium was discarded and the cells were treated with 2-NBDG (final concentration 0.05 mM) for 30 min, followed by removal of the solutions of each well. The cells were washed twice with 100 µL PBS, and lysed using 1% Triton X-100 solution in PBS. The fluorescence was recorded using a microplate reader (Biotek, Instruments, Winooski, VT, USA) at 480/530 nm.
The concentration of intracellular 2-NBDG was calculated using a calibration curve obtained using 2-NBDG at concentrations ranging from 0.0001 to 0.025 mM in lysis buffer. The results are presented as mean ± SD, n = 4–6. The coefficient of variation for the assay was calculated (CV = 2.2%, n = 8).

[4] = tested on: HUVEC cells; experiment: WST-1 cell viability assay, HUVEC; details: Homo sapiens, HUVEC, 24 h, read-out: Viability-IC50, HUVEC cells
Description: as §1

[5] = tested on: HUVEC cells; details: cited from earlier work
[6] = tested on: clot formation and fibrinolysis in human citrate plasma; details: over the entire concentration range; cited from earlier work
[7] = tested on: AoSMC cells; details: cited from earlier work
[8] = tested on: HUVEC cells; details: 0.006–1.5 mM; cited from earlier work
[9] = tested on: tissue plasminogen activator (t-PA) release from HUVEC; details: cited from earlier work
[10] = tested on: HUVEC cells; experiment: HUVEC migration, wound-healing assay (JuLI Stage); assay type: cell-based, human
Description: The effects of compounds 1–5 on HUVEC migration were determined using the JuLI™ Stage system (NanoEntek, Seoul, Korea): a real-time cell history recorder allowing for live cell imaging and analysis. The procedure for the migration experiments has been published elsewhere in more detail. Concisely, HUVECs were seeded at a density of 10,000 cells per well on 96-well plates and incubated at standard conditions for 24 h. Following this, a wound was made with a scratcher (NanoEntek, Seoul, Korea). The cells were then rinsed with 100 μL of fresh EGM2 medium, and treated with biguanides 1–5 at the concentrations of 0.3 and 1.0 mM. The cells were incubated and monitored continuously every 10 min for 36 h at 37 °C, 5% CO2. Analysis of obtained images of cell migration, and measurements of the width of the scratch area were performed using dedicated software (NanoEntek, Seoul, Korea). The results were presented as mean ± SD, n = 4–8. The CV for the method was estimated as 14.2–24.4%, depending on the time point (n = 8).

Structure (SMILES) | IC50 [1] [µM] | normalized Cell Index (nCI) ([2]; 0.3 mM, 3 hours) | normalized Cell Index (nCI) ([2]; 0.3 mM, 6 hours) | normalized Cell Index (nCI) ([2]; 0.3 mM, 12 hours) | normalized Cell Index (nCI) ([2]; 0.3 mM, 24 hours) | normalized Cell Index (nCI) ([2]; 0.3 mM, 36 hours) | normalized Cell Index (nCI) ([2]; 1.0 mM, 3 hours) | normalized Cell Index (nCI) ([2]; 1.0 mM, 6 hours) | normalized Cell Index (nCI) ([2]; 1.0 mM, 12 hours) | normalized Cell Index (nCI) ([2]; 1.0 mM, 24 hours) | normalized Cell Index (nCI) ([2]; 1.0 mM, 36 hours) | Glucose uptake (intracellular 2-NBDG) ([3]; 0.1 mM) [mM] | Glucose uptake (intracellular 2-NBDG) ([3]; 0.3 mM) [mM] | IC50 [4] [µM] | further results
CN(C)C(=N)N=C(N)NS(=O)(=O)c1ccccc1C#N [Compound 6] | 1680 ± 210 | 0.317 ± 0.050 | 0.424 ± 0.053 | 0.388 ± 0.07 | 0.280 ± 0.018 | 0.111 ± 0.026 | 0.010 ± 0.003 | 0.016 ± 0.005 | 0.019 ± 0.005 | 0.013 ± 0.003 | 0.009 ± 0.003 | 0.0128 ± 0.0007 | 0.0129 ± 0.0007 | 461 ± 130 | –
CN(C)C(=N)N=C(N)NS(=O)(=O)c1cccc(C#N)c1 [Compound 7] | 1890 ± 160 | 0.283 ± 0.050 | 0.367 ± 0.027 | 0.333 ± 0.030 | 0.255 ± 0.26 | 0.094 ± 0.014 | 0.013 ± 0.004 | 0.018 ± 0.001 | 0.020 ± 0.001 | 0.016 ± 0.002 | 0.013 ± 0.003 | 0.0131 ± 0.0013 | 0.0139 ± 0.001 | 304 ± 120 | –
CN(C)C(=N)N=C(N)NS(=O)(=O)c1ccc(C#N)cc1 [Compound 8] | 1570 ± 140 | 0.312 ± 0.087 | 0.461 ± 0.015 | 0.416 ± 0.062 | 0.321 ± 0.038 | 0.198 ± 0.055 | 0.006 ± 0.004 | 0.029 ± 0.006 | 0.021 ± 0.004 | 0.001 ± 0.001 | 0.001 ± 0.001 | 0.0131 ± 0.0009 | 0.0138 ± 0.0015 | 791 ± 130 | –
OC[C@H]1OC(O)[C@H](O)[C@@H](O)[C@@H]1O (stereo partly drawn) [D-glucose, reference compound] | – | – | – | – | – | – | – | – | – | – | – | 0.0014 ± 0.0001 | – | – | –
CN(C)C(=N)N=C(N)N [Metformin, dimethyl biguanide, reference compound] | – | – | – | – | – | – | – | – | – | – | – | 0.0146 ± 0.0009 | 0.0165 ± 0.0006 | – | effect on viability and morphology of HUVEC cells [5]: not affect; effect on overall potential of clot formation and fibrinolysis (CLAUC) [6]: did not affect; effect on viability and morphology of AoSMC cells [7]: not affect; effect on integrity and adherence of HUVEC cells [8]: not found to affect; effect on t-PA release [9]: significantly elevate; wound width ([10]; 0.3 mM, 6 hours): 570.1 ± 119.9 µm; wound width ([10]; 0.3 mM, 12 hours): 467.8 ± 106.5 µm; wound width ([10]; 0.3 mM, 18 hours): 412.1 ± 121.8 µm; wound width ([10]; 0.3 mM, 24 hours): 405.0 ± 120.7 µm; wound width ([10]; 0.3 mM, Start): 728.6 ± 62.5 µm; wound width ([10]; 1.0 mM, 6 hours): 565.4 ± 31.5 µm; wound width ([10]; 1.0 mM, 12 hours): 495.7 ± 20.0 µm; wound width ([10]; 1.0 mM, 18 hours): 482.7 ± 10.0 µm; wound width ([10]; 1.0 mM, 24 hours): 419.8 ± 42.3 µm; wound width ([10]; 1.0 mM, Start): 670.4 ± 29.2 µm
